Measurements: patent publication US9670242B2, “Tetracyclic anthraquinone derivatives” (Tianjin Hemay Bio-Tech Co., Ltd, priority 2012, dated 2017)

Assays:
[1] = test system: NCI-446 cells; experiment: NCI-446 cell growth inhibition test (MTT assay); type: cell-based, human; details: 72 h
Procedure: NCI-446 Cell Growth Inhibition Test (MTT Assay)
II. Reagents and Consumable Materials Culture medium: 90% RPMI1640+10% FBS (fetal calf serum); Pancreatin (0.25% (w/v) solution was formulated with PBS, 0.53 mM of EDTA was added in the formulation); PBS; 96-well culture plate.
(§1) 1. A plate (10 cm) of cells in logarithmic growth phase that were normally cultured was collected;
2. The culture solution was sucked out. The plate was washed with 5 ml of PBS once or twice;
3. PBS was sucked out. 1.5 mL of 0.25% pancreatin was added to the plate to infiltrate the cells for 1 min;
4. The culture plate was placed in an incubator. Digestion was carried out for about 3 min at 37° C.;
(§2) 5. 3 mL of complete culture solution was added to the culture plate to stop the digestion. The cells were carefully scoured with micropipette (1 mL) to give a uniform cell suspension. The suspension was implanted into a 96-well cell culture disc by 4000 cells/100 μL per well. The culture plate was incubated overnight under 5% CO2 at 37° C. In day 2, 100 μL of culture solution comprising a compound was added in each well. The plate was further incubated for 72 h under 5% CO2 at 37° C.;
6. The culture solution was sucked out;
7. 100 μL of serum-free culture solution containing 0.5 mg/mL MTT was added in each well. The plate was incubated for 3 h;
8. The culture solution was carefully sucked out;
9. […]
10. OD values were determined at 490 nM. […]

[2] = test system: Hep3B cells; experiment: Hep3B cell growth inhibition test (SRB assay); type: cell-based; details: 72 h
Procedure: Hep3B Cell Growth Inhibition Test (SRB Assay)
II. Reagents and Consumable Materials
Culture medium: 90% RPMI-1640+10% FBS; Pancreatin (0.25% (w/v) solution was formulated with PBS, 0.53 mM of EDTA was added in the formulation); PBS; 96-well culture plate.
as §1
2. The culture solution was sucked out. The plate was washed with 5 mL of PBS once or twice;
3. 1.5 mL of 0.25% pancreatin was added to the plate to infiltrate the cells;
4. The pancreatin was sucked out. The culture plate was placed in an incubator. Digestion was carried out for about 3 min at 37° C.;
as §2, with “5. 4” for “5. 3”, “uniform single” for “uniform”, “culture plate” for “culture disc”, “by 5000” for “by 4000”
6. The culture solution was sucked out. 100 uL of TCA fixed cells which were diluted to 10% were added to each well. The plate was kept in a refrigerator for 1 h at 4° C.
7. TCA stationary liquid was sucked out. Each well was washed with 150 μL of ddH2O five times;
8. After the stationary liquid was cleansed, the plate was dried in the air at the room temperature;
9. 60 μL of SRB staining solution was added in each well. The well was stained for 15 min at the room temperature;
10. The SRB staining solution was sucked out. Each well was washed with 150 μL of 1% glacial acetic acid five times;
11. After the SRB staining solution was cleansed, the plate was dried in the air at the room temperature;
12. 100 μL of 10 mM Tris was added in each well. The plate was vibrated to dissolve out SRB;
13. OD values were determined at 570 nM.
IV. Results and Treatments
1. Calculation of Relative Inhibition Ratio The inhibition ratio of the compound on cell growth=(PC−n)/(PC−NC)×100% […]

## COc1cccc2c1C(=O)c1c(O)c3c(c(O)c1C2=O)CC(O)(C(=O)COC(=O)CCC(=O)O)CC3OC1CC(n2cccc2)C(O)C(C)O1 (centres unmarked) [Compound A, 3′-pyrrolyldoxorubicin-14-oxo-succinic acid monoester, reference compound]
[1]
  IC50: 234 nM
[2]
  IC50: 444 nM
